From ChEMBL document CHEMBL2046291, “Potent inhibition of norovirus 3CL protease by peptidyl α-ketoamides and α-ketoheterocycles” (Bioorg Med Chem Lett, 2012)

Key:
Norovirus = assay: Antiviral activity against Norovirus infected in human HG23 cells; type: functional; settings: read-out: ED50 (the source's name)
[1] = Inhibition of Norovirus recombinant 3CL protease using Edans-EPDFHLQGPEDLAK-Dabcyl as substrate for 30 mins by fluorometry

EC50 (Norovirus) | IC50 [1] | SMILES
2.8 µM | 5.3 µM | CC(C)C[C@H](NC(=O)OCc1ccccc1)C(=O)N[C@@H](CC1CCNC1=O)C(=O)C(=O)NC(C)C (stereo not given in full)
1.8 µM | 7.1 µM | CC(C)C[C@H](NC(=O)OCc1ccccc1)C(=O)N[C@@H](CC1CCNC1=O)C(=O)C(=O)NCc1ccccc1 (stereo not given in full)
4.1 µM | 45.3 µM | CC(C)C[C@H](NC(=O)OCc1ccccc1)C(=O)N[C@@H](CC1CCNC1=O)C(O)C(=O)NC(C)C (stereo not given in full)
> 10 µM | > 50 µM | CC(C)C[C@H](NC(=O)OCc1ccccc1)C(=O)N[C@@H](CC1CCNC1=O)C(O)C(=O)NC1CC1 (stereo not given in full)
1.1 µM | 3.4 µM | CC(C)C[C@H](NC(=O)OCc1ccccc1)C(=O)N[C@@H](CC1CCNC1=O)C(=O)C(=O)NC1CC1 (stereo not given in full)
> 20 µM | > 50 µM | CCCCNC(=O)C(O)[C@H](CC1CCNC1=O)NC(=O)[C@H](CC(C)C)NC(=O)OCc1ccccc1 (stereo not given in full)
1.3 µM | 4.1 µM | CCCCNC(=O)C(=O)[C@H](CC1CCNC1=O)NC(=O)[C@H](CC(C)C)NC(=O)OCc1ccccc1 (stereo not given in full)
> 10 µM | > 50 µM | CCOC(=O)CNC(=O)C(O)[C@H](CC1CCNC1=O)NC(=O)[C@H](CC(C)C)NC(=O)OCc1ccccc1 (stereo not given in full)
0.8 µM | 2.1 µM | CCOC(=O)CNC(=O)C(=O)[C@H](CC1CCNC1=O)NC(=O)[C@H](CC(C)C)NC(=O)OCc1ccccc1 (stereo not given in full)
> 20 µM | > 50 µM | CC(C)C[C@H](NC(=O)OCc1ccccc1)C(=O)N[C@@H](CC1CCNC1=O)C(O)C(=O)NC1CCCCC1 (stereo not given in full)
1.2 µM | 3.5 µM | CC(C)C[C@H](NC(=O)OCc1ccccc1)C(=O)N[C@@H](CC1CCNC1=O)C(=O)C(=O)NC1CCCCC1 (stereo not given in full)
> 20 µM | > 50 µM | CC(C)C[C@H](NC(=O)OCc1ccccc1)C(=O)N[C@@H](CC1CCNC1=O)C(O)C(=O)NCc1ccccc1 (stereo not given in full)
> 20 µM | > 50 µM | CC(C)C[C@H](NC(=O)OCc1ccccc1)C(=O)N[C@@H](CC1CCNC1=O)C(O)C(=O)NC(C)(C)C (stereo not given in full)
1.1 µM | 2.8 µM | CC(C)C[C@H](NC(=O)OCc1ccccc1)C(=O)N[C@@H](CC1CCNC1=O)C(=O)C(=O)NC(C)(C)C (stereo not given in full)
6.3 µM | 23.1 µM | CC(C)NC(=O)C(O)[C@H](CC1CCNC1=O)NC(=O)[C@H](Cc1ccccc1)NC(=O)OCc1ccccc1 (stereo not given in full)
4.2 µM | 21.5 µM | CC(C)NC(=O)C(=O)[C@H](CC1CCNC1=O)NC(=O)[C@H](Cc1ccccc1)NC(=O)OCc1ccccc1 (stereo not given in full)
> 20 µM | > 50 µM | CC(C)C[C@H](NC(=O)OCc1ccccc1)C(=O)N[C@@H](CC1CCNC1=O)C(O)c1ncco1 (stereo not given in full)
0.9 µM | 2.3 µM | CC(C)C[C@H](NC(=O)OCc1ccccc1)C(=O)N[C@@H](CC1CCNC1=O)C(=O)c1ncco1 (stereo not given in full)
4.3 µM | 12.3 µM | CC(C)C[C@H](NC(=O)OCc1ccccc1)C(=O)N[C@@H](CC1CCNC1=O)C(O)c1nccs1 (stereo not given in full)
4.2 µM | 8.8 µM | CC(C)C[C@H](NC(=O)OCc1ccccc1)C(=O)N[C@@H](CC1CCNC1=O)C(=O)c1nccs1 (stereo not given in full)
